Data on 29 compounds can be found in ChEMBL document CHEMBL5108028 (Bioorg Med Chem, 2022).

Active and inactive are the calls of the source. The rule behind the calls is not given here. Where a SMILES comes first, the peptide text is derived from it. [ ]: non-standard residue; d: D form. 2Thi = N[C@@H](Cc1cccs1)C(=O)O; hSer = N[C@@H](CCO)C(=O)O; Nle = CCCC[C@H](N)C(=O)O

Assay [1] has as its system MKN-74. The assay can be described thus: Anticancer activity against human MKN-74 cells assessed as inhibition of cell growth incubated for 3 days by MTT assay. The assay is classed as functional, cell-based. The settings on record: MKN-74, 72 h.
In assay [2] the test system is MKN-7. Description: Anticancer activity against human MKN-7 cells assessed as inhibition of cell growth incubated for 3 days by MTT assay. The assay is classed as functional, cell-based. The settings on record: MKN-7, 72 h. A general note: Tetrazolium assays rely on reduction of a dye to a coloured formazan, in cell work by metabolically active cells.
In assay [3] the target is T1, Cadherin-1 (Homo sapiens) (UniProt P12830).
T1 sequence (whole entry): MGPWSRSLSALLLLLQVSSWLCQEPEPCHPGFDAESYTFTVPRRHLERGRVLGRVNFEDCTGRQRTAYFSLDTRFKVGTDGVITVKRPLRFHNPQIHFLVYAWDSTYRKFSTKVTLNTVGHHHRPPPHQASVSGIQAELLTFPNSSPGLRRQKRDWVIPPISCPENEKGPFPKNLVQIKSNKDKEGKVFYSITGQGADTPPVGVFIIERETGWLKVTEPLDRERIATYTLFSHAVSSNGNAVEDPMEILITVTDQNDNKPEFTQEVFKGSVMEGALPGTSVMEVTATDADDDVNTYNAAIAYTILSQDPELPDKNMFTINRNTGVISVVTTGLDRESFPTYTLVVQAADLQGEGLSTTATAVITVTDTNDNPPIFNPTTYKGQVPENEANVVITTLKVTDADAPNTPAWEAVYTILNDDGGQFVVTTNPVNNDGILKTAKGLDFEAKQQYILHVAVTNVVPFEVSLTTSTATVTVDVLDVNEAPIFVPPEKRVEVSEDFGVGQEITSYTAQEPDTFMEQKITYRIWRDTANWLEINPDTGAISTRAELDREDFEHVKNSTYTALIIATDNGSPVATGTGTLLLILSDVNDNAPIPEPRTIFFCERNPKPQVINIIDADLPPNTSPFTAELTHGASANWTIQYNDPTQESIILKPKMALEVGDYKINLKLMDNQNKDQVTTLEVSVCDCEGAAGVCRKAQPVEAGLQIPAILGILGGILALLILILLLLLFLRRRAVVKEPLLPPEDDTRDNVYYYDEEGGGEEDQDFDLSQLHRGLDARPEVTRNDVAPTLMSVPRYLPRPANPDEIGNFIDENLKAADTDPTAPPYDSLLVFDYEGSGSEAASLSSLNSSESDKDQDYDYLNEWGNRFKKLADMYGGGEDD
The assay can be described thus: Binding affinity to human E-cadherin in human MKN-7 cell membrane protein fraction measured after 2 hrs by Western blotting based pull-down assay. The assay is classed as cell membranes. A general note: A western blot detects proteins with antibodies after separation by electrophoresis.

As a reminder, the IC50 is the concentration at which inhibition is half-maximal. As for `CC[C@H](C)[C@H](NC(=O)[C@@H](N)Cc1ccccc1)C(=O)N[C@@H](CC(=O)O)C(=O)N[C@@H](CC(C)C)C(=O)N[C@@H](CC(N)=O)C(=O)N[C@@H](Cc1ccc(O)cc1)C(=O)N[C@@H](CCSC)C(=O)N[C@H](C(=O)N[C@@H](Cc1ccc(O)cc1)C(=O)N[C@@H](Cc1cccs1)C(N)=O)C(C)C` (H-FIDLNYMVY[2Thi]-NH2), the IC50 is 0.98 µM in assay [1] and 8.62 µM in assay [2].

As for `CC[C@H](C)[C@H](NC(=O)[C@@H](N)Cc1ccccc1)C(=O)N[C@@H](CC(=O)O)C(=O)N[C@@H](CC(C)C)C(=O)N[C@@H](CC(N)=O)C(=O)N[C@@H](Cc1ccc(O)cc1)C(=O)N[C@@H](CCOC)C(=O)N[C@H](C(=O)N[C@@H](Cc1ccc(O)cc1)C(=O)N[C@@H](CCSC)C(N)=O)C(C)C` (H-FIDLNY[hSer](Me)VYM-NH2), the 50% inhibitory concentration (IC50) in assay [1] came to 0.2 µM; in assay [2], 3.51 µM. As to H-FIDLNYMVY-NH2, the values for the IC50 in assay [1] and in assay [2] were 17.9 µM and 4.3 µM, respectively. Regarding `CCCC[C@H](NC(=O)[C@H](Cc1ccc(O)cc1)NC(=O)[C@H](CC(N)=O)NC(=O)[C@H](CC(C)C)NC(=O)[C@H](CC(=O)O)NC(=O)[C@@H](NC(=O)[C@@H](N)Cc1ccccc1)[C@@H](C)CC)C(=O)N[C@H](C(=O)N[C@@H](Cc1ccc(O)cc1)C(=O)N[C@@H](CCOC)C(N)=O)C(C)C` (H-FIDLNY[Nle]VY[hSer](Me)-NH2), the IC50 in assay [1] was 0.07 µM; in assay [2], 0.61 µM. On to H-KVDIVAINDP-OH, for which the IC50 in assay [2] worked out at 97.3 µg/mL. Consider H-DLNYMVYM-NH2, for which the results for the IC50 in assay [1] and in assay [2] were 20.7 µM and 13.5 µM, respectively.

In the case of H-FIDLNYMV-NH2, the half-inhibitory concentration (IC50) in assay [1] is 21.6 µM; in assay [2] it was 8.22 µM.

For H-AIDLNYMVYM-OH, the IC50 stood at 9.29 µM in assay [1] and 4.03 µM in assay [2].

On to `CCCC[C@H](NC(=O)[C@H](Cc1ccc(O)cc1)NC(=O)[C@@H](NC(=O)[C@H](CCSC)NC(=O)[C@H](Cc1ccc(O)cc1)NC(=O)[C@H](CC(N)=O)NC(=O)[C@H](CC(C)C)NC(=O)[C@H](CC(=O)O)NC(=O)[C@@H](NC(=O)[C@@H](N)Cc1ccccc1)[C@@H](C)CC)C(C)C)C(N)=O` (H-FIDLNYMVY[Nle]-NH2), for which the IC50 in assay [1] worked out at 0.35 µM; in assay [2], 10.2 µM. Regarding H-FIDLAYMVYM-OH, the values for the IC50 in assay [1] and in assay [2] were 8.84 µM and 5.8 µM, respectively. For the compound H-FIDLNYMVYA-OH, the values for the IC50 in assay [1] and in assay [2] were 4.5 µM and 8.78 µM, respectively. For H-FIDLNYMVYL-NH2 the same measures were 1.09 µM and 9.81 µM. For H-FIALNYMVYM-OH, in that order: 1.14 µM and 0.98 µM. With H-FIDLNYMVYM-OH, the outcome in assay [3] was Active. For the same compound, the values for the concentration for half-maximal inhibition (IC50) in assay [1] and in assay [2] were 13.2 µg/mL and 18.9 µg/mL, respectively. In the case of H-FIDLNYMVYM-NH2, the IC50 stood at 0.37 µM in assay [1] and 1.13 µM in assay [2]. For H-FIDLNYFVYM-NH2 the same measures were 1.59 µM and 8.23 µM.

On to H-FIDLNYLVYM-NH2, for which the concentration for half-maximal inhibition (IC50) in assay [1] worked out at 0.16 µM; in assay [2], 3.36 µM.

For the compound H-IDLNYMVYM-NH2, the IC50 in assay [1] is 25.7 µM; in assay [2], 11.4 µM.

Take H-YMVYMFQYDS-OH: the half-maximal inhibitory concentration (IC50) in assay [2] worked out at 79.1 µg/mL. As for H-FIDLNYAVYM-OH, the values for the half-inhibitory concentration (IC50) in assay [1] and in assay [2] were 9.05 µM and 3.01 µM, respectively.

In the case of H-FIDLNYMAYM-OH, the results for the IC50 in assay [1] and in assay [2] were 16.3 µM and 14.8 µM, respectively.

With H-FIDLNAMVYM-OH, the concentration for half-maximal inhibition (IC50) was found to be 1.14 µM in assay [1] and 2.62 µM in assay [2].

Consider H-FIDLNYMVAM-OH, for which the 50% inhibitory concentration (IC50) in assay [1] is 1.11 µM; in assay [2], 4.24 µM. As to `CC[C@H](C)[C@H](NC(=O)[C@@H](N)Cc1ccccc1)C(=O)N[C@@H](CC(=O)O)C(=O)N[C@@H](CC(C)C)C(=O)N[C@@H](CC(N)=O)C(=O)N[C@@H](Cc1ccc(O)cc1)C(=O)N[C@@H](CCSC)C(=O)N[C@H](C(=O)N[C@@H](Cc1ccc(O)cc1)C(=O)N[C@@H](CCOC)C(N)=O)C(C)C` (H-FIDLNYMVY[hSer](Me)-NH2), the IC50 was determined as 0.19 µM in assay [1] and 4.43 µM in assay [2]. Take `CC[C@H](C)[C@H](NC(=O)[C@@H](N)Cc1ccccc1)C(=O)N[C@@H](CC(=O)O)C(=O)N[C@@H](CC(C)C)C(=O)N[C@@H](CC(N)=O)C(=O)N[C@@H](Cc1ccc(O)cc1)C(=O)N[C@@H](Cc1cccs1)C(=O)N[C@H](C(=O)N[C@@H](Cc1ccc(O)cc1)C(=O)N[C@@H](CCSC)C(N)=O)C(C)C` (H-FIDLNY[2Thi]VYM-NH2): the 50% inhibitory concentration (IC50) in assay [1] came to 0.96 µM; in assay [2], 6.35 µM. With H-FIDLNYMVYF-NH2, the half-maximal inhibitory concentration (IC50) worked out at 0.25 µM in assay [1] and 6.87 µM in assay [2].

Consider `CCCC[C@H](NC(=O)[C@H](Cc1ccc(O)cc1)NC(=O)[C@H](CC(N)=O)NC(=O)[C@H](CC(C)C)NC(=O)[C@H](CC(=O)O)NC(=O)[C@@H](NC(=O)[C@@H](N)Cc1ccccc1)[C@@H](C)CC)C(=O)N[C@H](C(=O)N[C@@H](Cc1ccc(O)cc1)C(=O)N[C@@H](CCSC)C(N)=O)C(C)C` (H-FIDLNY[Nle]VYM-NH2), for which the IC50 came to 0.2 µM in assay [1] and 1.64 µM in assay [2]. On to H-FADLNYMVYM-OH, for which the IC50 in assay [1] is 3.91 µM; in assay [2], 4.38 µM. For H-FIDANYMVYM-OH the same measures were 5.47 µM and 9.56 µM.
